Assay: Population pharmacokinetic analysis
Type: in vivo, human

SMILES | FRator-oOH (base PK model) [%] | between-subject variability on CLator (base PK model, CV%) [%] | between-subject variability on FRator-oOH (base PK model, CV%) [%] | between-subject variability on Vcator=Vcmet (base PK model, CV%) [%] | decrease in logit(FRator-oOH) (coadministration of boosted ARVs) [%] | central volume of distribution of atorvastatin and o-OH-atorvastatin (Vcator=Vcmet) (base PK model) [L] | metabolite clearance (CLo-OH-ator) (base PK model) [L/h] | o-OH-atorvastatin formed slower (presence vs absence of boosted ARVs, full dataset) [%]
CC(C)c1c(C(=O)Nc2ccccc2)c(-c2ccccc2)c(-c2ccc(F)cc2)n1CC[C@@H](O)C[C@@H](O)CC(=O)O [atorvastatin] | 11 | 94 | 131 | 137 | 225 | – | – | –
CC(C)c1c(C(=O)Nc2ccccc2O)c(-c2ccccc2)c(-c2ccc(F)cc2)n1CC[C@@H](O)C[C@@H](O)CC(=O)O [o-OH-atorvastatin, ortho-hydroxy atorvastatin] | – | – | – | – | – | 3170 | 118 | 88
